Source: article PMC9617675 (Antiviral Research, 2022)
“And” between values parts separate entries of the source, which are not always exact repeats. Identical values can stand only once. Like-named read-outs stand apart in the source and are kept apart here.

Experiments:
in vitro = settings: African green monkey
[1] = system: SARS-CoV-2 B.1.1.7 (Alpha); format: cell-based; settings: Vero E6 cells, mean ± SD
[2] = system: SARS-CoV-2 wild-type (2019-nCoV-WIV04); format: cell-based
[3] = system: SARS-CoV-2 (2019-nCoV-WIV04); format: cell-based; settings: Vero E6
[4] = system: SARS-CoV-2 B.1.617.2 (Delta); format: cell-based; settings: Vero E6 cells, mean ± SD
[5] = healthy human; ref NCT05197179 and NCT04766931; cited from earlier work
SARS-CoV-2 = assay: Time of addition assay in Vero E6 cells; format: cell-based; settings: 2 μM, 10 μM, 1 μM + P-gp inhibitor; entry, post entry and full-time
[6] = system: SARS-CoV-2 B.1.351 (Beta); format: cell-based; settings: Vero E6 cells, mean ± SD

Row | SMILES | CC50 (in vitro) | EC50 [1] | EC90 [1] | EC50 [2] | EC90 [2] | CC50 (Vero E6 cells; CCK8, 24 h) | CC50 (Vero E6 cells; CCK8, with P-gp inhibitor CP-100356) | EC50 ([3]; 10% human serum) | EC50 ([3]; 20% human serum) | EC50 ([3]; 30% human serum) | EC50 ([3]; 40% human serum) | EC50 ([3]; 50% human serum) | EC50 [4] | EC90 [4] | safety and tolerability [5] | antiviral activity in time of addition assay (SARS-CoV-2) | EC50 [6] | EC90 [6]
1 | CCN(CC)CCCC(C)Nc1ccnc2cc(Cl)ccc12 (stereo not drawn) [Chloroquine phosphate] | > 100 µM | – | – | – | – | – | – | – | – | – | – | – | – | – | – | – | – | –
2 | O=C[C@H](C[C@@H]1CCNC1=O)NC(=O)[C@H](CC1CCCCC1)NC(=O)c1cc2ccccc2[nH]1 [FB2001] | – | 0.39 ± 0.01 µM | 0.75 ± 0.01 µM | 0.42 ± 0.08 µM | 1.36 ± 1.73 µM | 243 µM and 274 µM | 142 µM | 1.1 µM | 1.91 µM | 2.57 µM | 2.15 µM | 2.4 µM | 0.27 ± 0.05 µM | 0.81 ± 0.2 µM | good safety and tolerability | potent antiviral activities under all conditions | 0.28 ± 0.11 µM | 0.57 ± 0.21 µM
3 | CC(C)(C)[C@H](NC(=O)C(F)(F)F)C(=O)N1C[C@H]2[C@@H]([C@H]1C(=O)N[C@H](C#N)C[C@@H]1CCNC1=O)C2(C)C [PF-07321332, reference compound] | – | 0.82 ± 0.02 µM | 1.54 ± 0.02 µM | – | – | – | – | – | – | – | – | – | 0.78 ± 0.21 µM | 1.89 ± 0.1 µM | – | – | 0.49 ± 0.06 µM | 1.74 ± 0.26 µM
